Measured values taken from PubChem BioAssay (NCI).
Where “and” joins values, the source holds several entries; their conditions need not be identical. Identical values can stand only once.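 Five compound concentrations were applied to cells in 96-well plates for 48 hours; endpoints were derived by simple linear interpolation of the resulting dose-response curve. The concentration for 50% growth inhibition is given as GI50. TGI marks complete inhibition of growth.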

Key:
Assay in all cases: NCI tumour cell line growth inhibition, 48 h
DMS 114 small cell lung = system: DMS 114 small cell lung
MDA-N = system: MDA-N
PC-3 prostate = system: PC-3 prostate
KM20L2 colon = system: KM20L2 colon
T-47D breast = system: T-47D breast
BT-549 breast = system: BT-549 breast
RXF-631 renal = system: RXF-631 renal
NCI/ADR-RES ovarian = system: NCI/ADR-RES ovarian
SNB-78 CNS = system: SNB-78 CNS

Row | Compound | TGI (DMS 114 small cell lung) [µM] | TGI (PC-3 prostate) | TGI (KM20L2 colon) [µM] | TGI (T-47D breast) [µM] | TGI (BT-549 breast) | TGI (NCI/ADR-RES ovarian) | TGI (SNB-78 CNS) [µM] | GI50 (PC-3 prostate) [µM] | GI50 (T-47D breast) | GI50 (NCI/ADR-RES ovarian) | also measured
1 | COc1ccc2c(c1)c1ccc3c(c1n2C)C(=O)C=CC3=O | 47.4 | 26.2 µM | > 57.3 | 6.25 | 10.3 µM | 42.7 µM | 45.5 |  |  |  | TGI (MDA-N): 24.1 µM; TGI (RXF-631 renal): > 45.5 µM
2 | O=c1cc(-c2ccccc2)oc2c(O)c(O)ccc12 |  | > 100 µM |  | > 100 | 42.3 µM | 67.5 µM |  | 7.74 | 16.9 µM | 4.04 µM | GI50 (BT-549 breast): 8.36 µM
3 | Cn1cnc(SC2=CC(=O)C=C3S[C@H]4C[C@@]23c2c(c(O)c3c5c2=NCCC=5C=N3)N4)c1CC(N)C(=O)O (stereo not given in full) | 4.31 | 51.8 µM | 11.6 | 38.3 |  | 56.7 µM | 38.4 | 13.4 | 20.2 µM | 23.7 µM | GI50 (MDA-N): 2 µM; TGI (MDA-N): 3.63 µM; GI50 (KM20L2 colon): 2.48 µM; GI50 (SNB-78 CNS): 15.3 µM
4 | C=C[C@@H]1CCC/C=C/[C@@H]2C[C@H](O)C[C@H]2[C@H](O)/C=C/C(=O)O1 |  | > 100 µM |  | 4.28 | > 37.1 µM | 11.6 µM |  | 0.785 | 1.21 µM | 0.365 µM | GI50 (BT-549 breast): 0.543 µM
5 | COC(=O)C(/C(=N/N)C(=O)Nc1cc(Cl)ccc1Cl)c1nc2ccc([N+](=O)[O-])cc2[nH]c1=O (stereo not given) | > 100 |  | > 100 |  |  |  | > 100 |  |  |  | 
6 | COc1ccc(Cc2ccc3[nH]c(=O)cc(C)c3c2)cc1S(=O)(=O)O |  | > 100 µM |  | > 100 | > 100 µM | > 100 µM |  |  |  |  | TGI (MDA-N): > 100 µM
7 | O=[N+]([O-])c1cc(I)cc(/C=N/NS(=O)(=O)c2ccc(F)cc2)c1O | 52.2 |  | > 100 |  |  |  | 69 |  |  |  | TGI (RXF-631 renal): 57.9 µM
8 | COc1ccc2c(c1)/C(=C\c1c(-c3ccccc3)nc3sccn13)C(=O)N2 |  | > 35.6 µM |  | 30.9 | 13.9 µM | 3.27 µM |  | 9.55 | 8.33 µM | 1.09 µM | GI50 (BT-549 breast): 3 µM
9 | CC1CCCc2c1n[nH]c2CC1CC(=O)NC(=O)C1 (stereo not given) | > 100 |  | > 100 |  |  |  | > 100 |  |  |  | TGI (RXF-631 renal): > 100 µM
10 | O=C(O)c1nn(-c2ccc(Cl)cc2)c2c1C(=O)c1ccccc1C2=O |  | > 100 µM |  | > 100 | > 100 µM | > 100 µM |  |  |  |  | TGI (MDA-N): > 100 µM
11 | Oc1ccc(Br)cc1C=NC1CCCCC1 |  | > 100 µM |  | 75.5 | > 100 µM | > 100 µM |  |  |  |  | TGI (MDA-N): > 100 µM
12 | COc1ccc(/C=C/c2cc(OC)c(OC)c(OC)c2)cc1OC | > 100 |  | > 100 |  |  |  | 91.9 |  |  |  | TGI (RXF-631 renal): > 100 µM
13 | COc1nc(NC2OC(COC(C)=O)C(OC(C)=O)C(OC(C)=O)C2OC(C)=O)c(N=C(C)C(C)=O)c(=O)n1C (stereo not given) | > 100 |  | > 100 |  |  |  | > 100 |  |  |  | 
14 | COc1cc(/C=C2\C[C@H]3[C@@H]4CC=C5C[C@@H](O)CC[C@]5(C)[C@H]4CC[C@]3(C)[C@H]2O)ccc1OCCN1CCCCC1 |  | 7.01 µM |  | 16.2 | 2.49 µM | 4.66 µM |  | 1.03 | 2.05 µM | 1.46 µM | GI50 (BT-549 breast): 1.18 µM
15 | Nc1ccc(C(=O)CC2(O)C(=O)Nc3ccccc32)cc1 (stereo not given) | > 100 |  | > 100 |  |  |  | > 100 |  |  |  | 
16 | CCOC(=O)NC(=O)c1cn(C2CCCCC2)c(=O)n(C)c1=O | > 100 |  | > 100 |  |  |  | > 100 |  |  |  | TGI (RXF-631 renal): > 100 µM
17 | C=CCN=C1NC(=O)C(CC(=O)Nc2cccc(Cl)c2)S1 (stereo not given) | > 100 |  | > 100 |  |  |  |  |  |  |  | TGI (RXF-631 renal): > 100 µM
18 | Cc1ccccc1SC(/C=C/NNC1=NC(c2ccccc2)C(c2ccccc2)=NN1)c1ccccc1 (stereo not given) | 78.4 |  | > 100 |  |  |  | 73.9 |  |  |  | 
19 | N#Cc1c(N)c(C(=O)c2ccc3c(c2)OCCO3)n2c1CCCC2 |  | > 100 µM |  | > 100 | > 100 µM | > 52.5 µM |  | 4.32 | 4.38 µM | 1.12 µM | GI50 (BT-549 breast): 4.8 µM
20 | COc1cccc(/C=C2\N=C(Cl)OC2=O)c1O | > 100 |  | > 100 |  |  |  | > 100 |  |  |  | 
21 | NCCCNCc1c2ccccc2c(CNCCCN)c2ccccc12 | 37.8 |  | 53.4 |  |  |  | 60.1 |  |  |  | 
22 | COC(=O)[C@@H](C)C[C@H](Cc1ccccc1)NC(=O)c1csc([C@@H](C[C@H](C(C)C)N(C)C(=O)[C@@H](NC(=O)[C@H]2CCCCN2C)c2ccc(F)cc2)OC(C)=O)n1 |  | 25 µM and 28.3 µM |  |  | 0.0853 µM and 0.661 µM | 25 µM and > 100 µM |  |  | 0.00826 µM | 1.81 µM and 3.8 µM | 
23 | O=C(N/C(=C\c1cccc([N+](=O)[O-])c1)c1nc2c3c(ccc2[nH]1)C(=O)c1ccccc1C3=O)c1ccccc1 | > 100 |  | > 100 |  |  |  | > 100 |  |  |  | 
24 | C[C@]1(c2nc3c(C(N)=O)cccc3[nH]2)CCCN1 |  | > 100 µM |  | > 100 | > 100 µM | > 100 µM |  | > 100 | 68.4 µM and > 100 µM | > 100 µM | GI50 (BT-549 breast): > 100 µM
25 | OCC#Cc1ccccc1C#Cc1ccc(C#Cc2ccccc2C#CCO)cc1 |  | > 100 µM |  | > 100 | 32.2 µM | > 100 µM |  | 30.7 | > 100 µM | 55.2 µM | GI50 (BT-549 breast): 0.68 µM
26 | NC(=O)c1ccc(I)c([N+](=O)[O-])c1 |  | > 100 µM |  | > 100 | > 100 µM | > 100 µM |  | > 100 | 35.8 µM | > 100 µM | GI50 (BT-549 breast): > 100 µM
27 | CC(C)(C)OC(=O)NC(Cc1ccccc1)C(=S)N1CCCC1 (stereo not given) | > 100 |  | > 100 |  |  |  | > 100 |  |  |  | TGI (RXF-631 renal): > 100 µM
